Source: patent US20230096766A1, “AMINO ACID HAVING FUNCTIONAL GROUP CAPABLE OF INTERMOLECULAR HYDROGEN BONDING, PEPTIDE COMPOUND CONTAINING SAME AND METHOD FOR PRODUCTION THEREOF” (Chugai Seiyaku Kabushiki Kaisha, priority 2018, published 2023)
*1 amine or outer side, *2 acyl side, *3 side chain or, on linkers, in order; H or OH if unused. Where a SMILES comes first, the peptide text is derived from it. Bridges are numbered along the chain shown (N, C = ends). [ ]: non-standard residue; d: D form. The star is where a group is joined. ξ: configuration not given here. NMeAbu(3,3-F2-piperidino) = CN[C@@H](CCN1CCCC(F)(F)C1)C(=O)O; NMeAla(4-thiazolyl) = CN[C@@H](Cc1cscn1)C(=O)O; Phe(4-COOH) = N[C@@H](Cc1ccc(C(=O)O)cc1)C(=O)O; X11 = CNC(=O)c1ccc(CCN(CC(=O)[*:2])[*:1])cc1OC; NMePhe(3-Cl) = CN[C@@H](Cc1cccc(Cl)c1)C(=O)O; ξGln(SO2Me) = CS(=O)(=O)NC(=O)CCC(N)C(=O)O; Tyr(3-OMe) = COc1cc(C[C@H](N)C(=O)O)ccc1O; NMeF = CN[C@@H](Cc1ccccc1)C(=O)O; NMeGABA = CN(CCCC(=O)[*:2])[*:1]; NMeL = CN[C@@H](CC(C)C)C(=O)O; NMeV = CN[C@H](C(=O)O)C(C)C; NMeAbu = CC[C@H](NC)C(=O)O; ξNMeL = CNC(CC(C)C)C(=O)O; NMeA = CN[C@@H](C)C(=O)O; Piperidide = C1CCN(*)CC1; NBuGly = CCCCNCC(=O)O; Propyl(3-OH) = OCCC*; N(OH)Me = CN(O)*; X3 = C[C@H](O)C*; Sar = CNCC(=O)O; tBu = CC(C)(C)*

Experiment: in vitro
Settings: human

Compound | Papp (Caco-2, Caco-2) | Papp (Caco-2, Caco-2 (cm/sec)) | further results
CC(C)C[C@@H]1NC(=O)[C@H](C)N(C)C(=O)C[C@@H](C(=O)N2CCCCC2)NC(=O)[C@H](C(C)C)N(C)C(=O)CN(C)C(=O)[C@H]([C@@H](C)O)NC(=O)[C@H](CCN2CCCC(F)(F)C2)N(C)C(=O)[C@H](Cc2ccccc2)N(C)C(=O)[C@H](CC(C)C)NC(=O)[C@H](Cc2ccccc2)N(C)C(=O)[C@H](CC(C)C)N(C)C1=O [pd391] ([NMeA]L[NMeL][NMeF]L[NMeF][NMeAbu(3,3-F2-piperidino)]T[Sar][NMeV]D-Piperidide; lactam N-11) | 2.4 ×10⁻⁶ cm/s | – | –
CC[C@H]1C(=O)N[C@@H](CC(C)C)C(=O)N(C)[C@@H](CC(C)C)C(=O)N(C)[C@@H](Cc2ccccc2)C(=O)N[C@@H](CC(C)C)C(=O)N(C)[C@@H](CC(C)C)C(=O)N(CCc2ccc(C(=O)NC)c(OC)c2)CC(=O)N[C@@H]([C@@H](C)O)C(=O)N(C)CC(=O)N(C)[C@@H](CC(C)C)C(=O)N[C@H](C(=O)N2CCCCC2)CC(=O)N1C [AP223] ([NMeAbu]L[NMeL][NMeF]L[NMeL][X11]T[Sar][NMeL]D-Piperidide; lactam N-11) | – | 1.6 ×10⁻⁶ cm/s | –
CCCCN1CC(=O)N(C)[C@@H](C(C)C)C(=O)N[C@@H](CC(C)C)C(=O)N(C)[C@@H](Cc2ccccc2)C(=O)N(C)[C@@H](CCN2CCCC(F)(F)C2)C(=O)N[C@H](C(=O)N2CCCCC2)CC(=O)N[C@H](C)C(=O)N(C)[C@@H](Cc2ccccc2)C(=O)N[C@@H](CC(C)C)C(=O)N(C)[C@@H](CC(C)C)C(=O)N[C@@H]([C@@H](C)O)C1=O [pd388] ([dA][NMeF]L[NMeL]T[NBuGly][NMeV]L[NMeF][NMeAbu(3,3-F2-piperidino)]D-Piperidide; lactam N-11) | 1.9 ×10⁻⁶ cm/s | – | –
CCCCN1CC(=O)N(C)[C@@H](CC(C)C)C(=O)N[C@@H](COC(C)(C)C)C(=O)N(C)[C@@H](CC(C)C)C(=O)N(C)[C@@H](CC)C(=O)N[C@H](C(=O)N2CCCCC2)CC(=O)N[C@H](CC(C)C)C(=O)N(C)[C@@H](Cc2ccccc2)C(=O)N[C@@H](Cc2ccc(O)cc2)C(=O)N(C)[C@@H](CC(C)C)C(=O)N[C@@H]([C@@H](C)O)C1=O [Compound F02] ([dL][NMeF]Y[NMeL]T[NBuGly][NMeL]S(tBu)[NMeL][NMeAbu]D-Piperidide; lactam N-11) | – | 0.04 ×10⁻⁶ cm/s | –
CCCCN1CC(=O)N(C)[C@@H](CC(C)C)C(=O)N[C@@H](COC(C)(C)C)C(=O)N(C)[C@@H](Cc2ccccc2)C(=O)N(C)[C@@H](CC(C)C)C(=O)N[C@H](C(=O)N2CCCCC2)CC(=O)N[C@H](CC(C)C)C(=O)N(C)[C@@H](Cc2ccccc2)C(=O)N[C@@H](COCCCO)C(=O)N(C)[C@@H](CC(C)C)C(=O)N[C@@H]([C@@H](C)O)C1=O [AP89] ([dL][NMeF]S(Propyl(3-OH))[NMeL]T[NBuGly][NMeL]S(tBu)[NMeF][NMeL]D-Piperidide; lactam N-11) | – | 0.12 ×10⁻⁶ cm/s | –
CC(C)C[C@@H]1NC(=O)[C@H](CC(C)C)N(C)C(=O)C[C@@H](C(=O)N2CCCCC2)NC(=O)[C@H](CC(C)C)N(C)C(=O)CN(C)C(=O)[C@H]([C@@H](C)O)NC(=O)[C@H](Cc2cscn2)N(C)C(=O)[C@H](Cc2ccccc2)N(C)C(=O)[C@H](Cc2ccccc2)NC(=O)[C@H](Cc2ccccc2)N(C)C(=O)[C@H](CC(C)C)N(C)C1=O [pd228] ([NMeL]L[NMeL][NMeF]F[NMeF][NMeAla(4-thiazolyl)]T[Sar][NMeL]D-Piperidide; lactam N-11) | – | – | Papp (Caco-2, Caco-2 (cm/sec) Papp): 0.58 ×10⁻⁶ cm/s
CCCCN1CC(=O)N(C)[C@@H](CC(C)C)C(=O)N[C@@H](Cc2ccc(C(=O)N(C)O)cc2)C(=O)N(C)[C@@H](CC(C)C)C(=O)N(C)[C@@H](CC(C)C)C(=O)N[C@H](C(=O)N2CCCCC2)CC(=O)N[C@H](CC(C)C)C(=O)N(C)[C@@H](Cc2ccccc2)C(=O)N[C@@H](C(C)C)C(=O)N(C)C(CC(C)C)C(=O)N[C@@H]([C@@H](C)O)C1=O (stereo partly drawn) [AP249] ([dL][NMeF]V[ξNMeL]T[NBuGly][NMeL][Phe(4-COOH)](N(OH)Me)[NMeL][NMeL]D-Piperidide; lactam N-11) | – | 0.04 ×10⁻⁶ cm/s | –
CCCCN1CC(=O)N(C)[C@@H](Cc2ccccc2)C(=O)NC(CCC(=O)NS(C)(=O)=O)C(=O)N(C)[C@@H](CC(C)C)C(=O)N[C@@H](CC(C)C)C(=O)N(C)CC(=O)N(C)[C@@H](Cc2ccccc2)C(=O)N(C)[C@@H](CC(C)C)C(=O)N[C@@H](CC(C)C)C(=O)N(C)[C@@H](CC(C)C)C(=O)N[C@H](C(=O)N2CCCCC2)CC1=O (stereo partly drawn) [pd70] ([NBuGly][NMeF][ξGln(SO2Me)][NMeL]L[Sar][NMeF][NMeL]L[NMeL]D-Piperidide; lactam N-11) | 0.17 ×10⁻⁶ cm/s | – | –
CC[C@H](C)[C@@H]1NC(=O)[C@H](CC(C)C)N(C)C(=O)CCCN(C)C(=O)C[C@@H](C(=O)N2CCCCC2)NC(=O)[C@H](CC(C)C)N(C)C(=O)[C@H](CC(C)C)N(C)C(=O)[C@H]([C@@H](C)O)NC(=O)[C@H](CC(C)C)N(C)C(=O)[C@H](COC[C@H](C)O)NC(=O)[C@H](Cc2cccc(Cl)c2)N(C)C(=O)[C@H](Cc2ccccc2)N(C)C1=O [AP64] ([NMeGABA][NMeL]I[NMeF][NMePhe(3-Cl)]S(X3)[NMeL]T[NMeL][NMeL]D-Piperidide; lactam N-11) | – | 0.35 ×10⁻⁶ cm/s | –
CCCCN1CC(=O)N(C)[C@@H](CC(C)C)C(=O)N[C@@H](COC(C)(C)C)C(=O)N(C)[C@@H](CC(C)C)C(=O)N(C)[C@@H](CC)C(=O)N[C@H](C(=O)N2CCCCC2)CC(=O)N[C@H](CC(C)C)C(=O)N(C)[C@@H](Cc2ccccc2)C(=O)N[C@@H](Cc2ccc(O)c(OC)c2)C(=O)N(C)[C@@H](CC(C)C)C(=O)N[C@@H]([C@@H](C)O)C1=O [Compound E02] ([dL][NMeF][Tyr(3-OMe)][NMeL]T[NBuGly][NMeL]S(tBu)[NMeL][NMeAbu]D-Piperidide; lactam N-11) | – | 0.31 ×10⁻⁶ cm/s | –
